In brackets after ≈: the same amount, converted by molar mass.
Key:
Format in all cases: functional
NCI-H460 = test: Growth inhibition of human NCI-H460 cells
KM-20L2 = test: Growth inhibition of human KM20L2 cells
P388 = test: Growth inhibition of mouse P388 cells
DU-145 = test: Growth inhibition of human DU145 cells
BXPC-3 = test: Growth inhibition of human BXPC3 cells
SF-268 = test: Growth inhibition of human SF268 cells
MCF7 = test: Growth inhibition of human MCF7 cells

SMILES	GI50 (NCI-H460) [mg/L]	GI50 (KM-20L2) [mg/L]	GI50 (P388) [mg/L]	GI50 (DU-145) [mg/L]	GI50 (BXPC-3) [mg/L]	GI50 (SF-268) [mg/L]	GI50 (MCF7) [mg/L]
COc1c(C)c(=O)c2oc3cccc(O)c3ccc=2c1=O [BAUHINIASTATIN 1]	6.6 (≈ 23.2 µM)	> 10	0.65 (≈ 2.29 µM)	> 10	7 (≈ 24.6 µM)	2.4 (≈ 8.44 µM)	4.1 (≈ 14.4 µM)
COc1c(C)c(O)c2c(c1OC)C=Cc1c(O)cccc1O2 [BAUHINIASTATIN 2]	3.5 (≈ 11.7 µM)	> 10	23.2 (≈ 77.3 µM)	3.8 (≈ 12.7 µM)	3.8 (≈ 12.7 µM)	3.2 (≈ 10.7 µM)	3.1 (≈ 10.3 µM)
COc1cc2c(c(O)c1C)Oc1c(O)ccc(OC)c1C=C2 [BAUHINIASTATIN 3]	6.1 (≈ 20.3 µM)	> 10	15.7 (≈ 52.3 µM)	5.8 (≈ 19.3 µM)	6.6 (≈ 22 µM)	5.8 (≈ 19.3 µM)	3.2 (≈ 10.7 µM)
COc1c(C)c(O)cc2c1Oc1cccc(O)c1C=C2 [BAUHINIASTATIN 4]	–	–	61.5 (≈ 228 µM)	–	–	–	–
O=c1[nH]cc(F)c(=O)[nH]1 [FLUOROURACIL]	–	–	0.073 (≈ 0.561 µM)	–	–	–	–
COc1cc2c(c(O)c1C)Oc1cccc(O)c1C=C2 [PACHARIN]	4.2 (≈ 15.5 µM)	> 10	15.5 (≈ 57.3 µM)	3.3 (≈ 12.2 µM)	4.3 (≈ 15.9 µM)	3.1 (≈ 11.5 µM)	2.3 (≈ 8.51 µM)

Reference: ChEMBL document CHEMBL1157269, “Antineoplastic agents. 551. Isolation and structures of bauhiniastatins 1-4 from Bauhinia purpurea” (2006)
